Measurements: patent US20100004240A1, “Indole Compounds” (Glaxo Group Limited, priority 2006, published 2010)
Where a name gives a salt, the structure may show the parent alone.

What was measured:
[1] = molecular target: T1, human EP1 receptor (Homo sapiens, UniProt P34995); test: human EP1 calcium mobilisation assay; type: cell-based; conditions: for Ki: antagonism of PGE2-induced calcium mobilisation, CHO-K1 cells expressing human EP1, averages of a number of experiments, read-out: functional pKi value (converted)
T1 construct: expressed in transfected cells; host or cells: CHO-K1 cells
T1 sequence (P34995 1-402): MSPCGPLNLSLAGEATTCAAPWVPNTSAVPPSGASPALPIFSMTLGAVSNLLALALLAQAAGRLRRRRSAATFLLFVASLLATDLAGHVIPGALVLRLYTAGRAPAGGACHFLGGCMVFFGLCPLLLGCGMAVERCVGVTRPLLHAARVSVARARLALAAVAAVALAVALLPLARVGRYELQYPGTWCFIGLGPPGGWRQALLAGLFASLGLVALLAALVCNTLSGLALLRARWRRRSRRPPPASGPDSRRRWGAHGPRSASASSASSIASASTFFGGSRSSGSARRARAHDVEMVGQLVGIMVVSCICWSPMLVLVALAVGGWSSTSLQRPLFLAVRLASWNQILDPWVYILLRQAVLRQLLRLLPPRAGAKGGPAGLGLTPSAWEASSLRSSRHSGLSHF
Protocol: Briefly, the antagonist properties of compounds are assessed by their ability to inhibit the mobilisation of intracellular calcium ([Ca^2+]i) in response to activation of EP1 or EP3 receptors by the natural agonist hormone prostaglandin E2 (PGE2). Increasing concentrations of antagonist reduce the amount of calcium that a given concentration of PGE2 can mobilise. The net effect is to displace the PGE2 concentration-effect curve to higher concentrations of PGE2. The amount of calcium produced is assessed using a calcium-sensitive fluorescent dye such as Fluo-4, AM and a suitable instrument such as a Fluorimetric Imaging Plate Reader (FLIPR). Increasing amounts of [Ca^2+]i produced by receptor activation increase the amount of fluorescence produced by the dye and give rise to an increasing signal. The signal may be detected using the FLIPR instrument and the data generated may be analysed with suitable curve-fitting software.
The human EP1 or EP3 calcium mobilisation assay (hereafter referred to as ‘the calcium assay’) utilises Chinese hamster ovary-K1 (CHO-K1) cells into which a stable (pClN; BioTechniques 20 (1996): 102-110) vector containing either EP1 or EP3 cDNA has previously been transfected. Cells are cultured in suitable flasks containing culture medium such as DMEM:F-12 supplemented with 10% v/v foetal calf serum, 2 mM L-glutamine, 0.25 mg/ml geneticin, 100 μM flurbiprofen and 10 μg/ml puromycin.
For assay, cells are harvested using a proprietary reagent that dislodges cells such as Versene. Cells are re-suspended in a suitable quantity of fresh culture media for introduction into a 384-well plate. Following incubation for 24 hours at 37° C. the culture media is replaced with a medium containing Fluo-4 and the detergent pluronic acid, and a further incubation takes place. Concentrations of compounds are then added to the plate in order to construct concentration-effect curves. This may be performed on the FLIPR in order to assess the agonist properties of the compounds. Concentrations of PGE2 are then added to the plate in order to assess the antagonist properties of the compounds.
The data so generated may be analysed by means of a computerised curve-fitting routine. The concentration of compound that elicits a half-maximal inhibition of the calcium mobilisation induced by PGE2 (pIC50) may then be estimated.

[2] = molecular target: T2, human prostanoid EP1 receptor (Homo sapiens, UniProt P34995); test: binding assay for the human prostanoid EP1 receptor (competition with [3H]-PGE2); conditions: [3H]-PGE2 competition, CHO-K1 cell membranes expressing human EP1; averages of a number of experiments; read-out: pIC50 value (converted)
T2 construct: expressed in transfected cells; host or cells: CHO-K1 cells, membrane fraction
T2 sequence (P34995 1-402): T1 sequence (P34995 1-402)
Protocol: Competition assay using [^3H]-PGE2.
Compound potencies are determined using a radioligand binding assay. In this assay compound potencies are determined from their ability to compete with tritiated prostaglandin E2 ([^3H]-PGE2) for binding to the human EP1 receptor.
This assay utilises Chinese hamster ovary-K1 (CHO-K1) cells into which a stable vector containing the EP1 cDNA has previously been transfected. Cells are cultured in suitable flasks containing culture medium such as DMEM:F-12 supplemented with 10% v/v foetal calf serum, 2 mM L-glutamine, 0.25 mg/ml geneticin, 10 μg/ml puromycin and 10 μM indomethacin.
Cells are detached from the culture flasks by incubation in calcium and magnesium free phosphate buffered saline containing 1 mM disodium ethylenediaminetetraacetic acid (Na2EDTA) and 10 μM indomethacin for 5 min. The cells are isolated by centrifugation at 250×g for 5 mins and suspended in an ice cold buffer such as 50 mM Tris, 1 mM Na2EDTA, 140 mM NaCl, 10 μM indomethacin (pH 7.4). The cells are homogenised using a Polytron tissue disrupter (2×10s burst at full setting), centrifuged at 48,000×g for 20 mins and the pellet containing the membrane fraction is washed (optional) three times by suspension and centrifugation at 48,000×g for 20 mins. The final membrane pellet is suspended in an assay buffer such as 10 mM 2-[N-morpholino]ethanesulphonic acid, 1 mM Na2EDTA, 10 mM MgCl2 (pH 6). Aliquots are frozen at −80° C. until required.
For the binding assay the cell membranes, competing compounds and [^3H]-PGE2 (3 nM final assay concentration) are incubated in a final volume of 100 μl for 30 min at 30^O C. All reagents are prepared in assay buffer. Reactions are terminated by rapid vacuum filtration over GF/B filters using a Brandell cell harvester. The filters are washed with ice cold assay buffer, dried and the radioactivity retained on the filters is measured by liquid scintillation counting in Packard TopCount scintillation counter.
The data are analysed using non linear curve fitting techniques to determine the concentration of compound producing 50% inhibition of specific binding (IC50).

O=C(NC1CCOCC1)c1coc(-c2cn(CC3CC3)c3ccc(Cl)cc23)n1 [Example 1, 2-[5-Chloro-1-(cyclopropylmethyl)-1H-indol-3-yl]-N-(tetrahydro-2H-pyran-4-yl)-1,3-oxazole-4-carboxamide]
activity in the calcium mobilisation assay ([1]; human EP1, CHO-K1 cells): inactive | IC50 [2]: ≤ 1 µM

O=C(NN1CCOCC1)c1coc(-c2cn(CC3CC3)c3ccc(Cl)cc23)n1 [Example 2, 2-[5-Chloro-1-(cyclopropylmethyl)-1H-indol-3-yl]-N-4-morpholinyl-1,3-oxazole-4-carboxamide]
Ki [1]: ≤ 1 µM | IC50 [2]: ≤ 0.316 µM

O=C(NN1CCOCC1)c1coc(-c2cn(C3CCCC3)c3ccc(Cl)cc23)n1 [Example 3, 2-(5-Chloro-1-cyclopentyl-1H-indol-3-yl)-N-4-morpholinyl-1,3-oxazole-4-carboxamide]
Ki [1]: ≤ 0.316 µM | IC50 [2]: ≤ 0.316 µM

O=C(c1coc(-c2cn(C3CCCC3)c3ccc(Cl)cc23)n1)N1CCOCC1 [Example 4, 5-Chloro-1-cyclopentyl-3-[4-(4-morpholinylcarbonyl)-1,3-oxazol-2-yl]-1H-indole]
Ki [1]: ≤ 1 µM | IC50 [2]: ≤ 1 µM

CC(C)Cn1cc(-c2nc(C(=O)Nc3cccnc3)co2)c2cc(Cl)ccc21 [Example 5, 2-[5-Chloro-1-(2-methylpropyl)-1H-indol-3-yl]-N-3-pyridinyl-1,3-oxazole-4-carboxamide]
Ki [1]: ≤ 0.316 µM | IC50 [2]: ≤ 0.316 µM

CC(C)Cn1cc(-c2nc(C(=O)Nc3ccccn3)co2)c2cc(Cl)ccc21 [Example 6, 2-[5-Chloro-1-(2-methylpropyl)-1H-indol-3-yl]-N-2-pyridinyl-1,3-oxazole-4-carboxamide]
Ki [1]: ≤ 0.316 µM

CC(C)Cn1cc(-c2nc(C(=O)NCC3CCOCC3)co2)c2cc(Cl)ccc21 [Example 7, 2-[5-Chloro-1-(2-methylpropyl)-1H-indol-3-yl]-N-(tetrahydro-2H-pyran-4-ylmethyl)-1,3-oxazole-4-carboxamide]
Ki [1]: ≤ 0.316 µM | IC50 [2]: ≤ 0.316 µM

CC(C)Cn1cc(-c2nc(C(N)=O)co2)c2cc(Cl)ccc21 [Example 8, 2-[5-Chloro-1-(2-methylpropyl)-1H-indol-3-yl]-1,3-oxazole-4-carboxamide]
Ki [1]: ≤ 0.316 µM | IC50 [2]: ≤ 0.316 µM

CC(C)Cn1cc(-c2nc(-c3nc4ccccc4[nH]3)co2)c2cc(Cl)ccc21 [Example 9, 2-{2-[5-Chloro-1-(2-methylpropyl)-1H-indol-3-yl]-1,3-oxazol-4-yl}-1H-benzimidazole hydrochloride]
Ki [1]: ≤ 0.316 µM | IC50 [2]: ≤ 0.316 µM

CC(C)Cn1cc(-c2nc(-c3nc4ncccc4[nH]3)co2)c2cc(Cl)ccc21 [Example 10, 2-{2-[5-Chloro-1-(2-methylpropyl)-1H-indol-3-yl]-1,3-oxazol-4-yl}-1H-imidazo[4,5-b]pyridine]
Ki [1]: ≤ 1 µM | IC50 [2]: ≤ 0.316 µM

CC(C)Cn1cc(-c2nc(-c3nc4cc(CO)ccc4[nH]3)co2)c2cc(Cl)ccc21 [Example 11, (2-{2-[5-Chloro-1-(2-methylpropyl)-1H-indol-3-yl]-1,3-oxazol-4-yl}-1H-benzimidazol-5-yl)methanol]
Ki [1]: ≤ 0.316 µM | IC50 [2]: ≤ 0.316 µM

CC(C)Cn1cc(-c2nc(-c3nc4ccc(CN5CCCCC5)cc4[nH]3)co2)c2cc(Cl)ccc21 [Example 12, 2-{2-[5-Chloro-1-(2-methylpropyl)-1H-indol-3-yl]-1,3-oxazol-4-yl}-5-(1-piperidinylmethyl)-1H-benzimidazole dihydrochloride]
IC50 [2]: ≤ 0.316 µM

CC(C)Cn1cc(-c2nc(-c3nc4ccc(CN5CCCC5)cc4[nH]3)co2)c2cc(Cl)ccc21 [Example 13, 2-{2-[5-Chloro-1-(2-methylpropyl)-1H-indol-3-yl]-1,3-oxazol-4-yl}-5-(1-pyrrolidinylmethyl)-1H-benzimidazole dihydrochloride]
IC50 [2]: ≤ 0.316 µM

CCNCc1ccc2nc(-c3coc(-c4cn(CC(C)C)c5ccc(Cl)cc45)n3)[nH]c2c1 [Example 14, [(2-{2-[5-Chloro-1-(2-methylpropyl)-1H-indol-3-yl]-1,3-oxazol-4-yl}-1H-benzimidazol-5-yl)methyl]ethylamine dihydrochloride]
IC50 [2]: ≤ 1 µM
